Results from patent US20250129430A1, “HIGH ATP-AFFINITY PROTEIN AS THERAPEUTIC TARGET FOR INTRACTABLE CANCER MOLECULAR SUBTYPES AND INHIBITOR THEREOF” (VeraVerse Co., Ltd., priority 2021, published 2025).

What was measured:
Assay in all cases: Cell viability drug screen, 12-point dose-response AUC
Type in all cases: cell-based, human
FU97 = system: FU97; design: Average Area Under the Viability Curve (AUC), AUC norm value: scale not given here; conditions: FU97 cells; 72 hours
In short: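 Trapezoidal AUC of a 12-point, DMSO-normalized dose-response curve. Luminescent viability was measured after 72 h of exposure at 37° C to half-log serial dilutions (0.5% DMSO control), dosed 24 h after plating FU97 cells at 5×10^3 per well.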

SNU1 = SNU1 cells; 72 hours
In short: (§1)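 Viability: luminescence (Glo kit, 15 min RT), normalized to 0.5% DMSO vehicle. Dosing: half-log, 12 concentrations, 72 h. Cells: 5×10^3/well, treated 24 h after plating. Value: trapezoidal AUC, mean of repeats.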

OCUM1 = OCUM1 cells; 72 hours
In short: as §1

AGS = AGS cells (non-SEM subtype); 72 hours
In short: (§2)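 AUC comes from 12-point half-log dose–response curves, normalized to DMSO-treated cells and integrated trapezoidally, repeats averaged. Luminescent viability read after 72 h compound exposure at 37 °C; cells plated 5×10^3 per well 24 h before dosing.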

MKN28 = MKN28 cells; 72 hours
In short: as §1

SNU601 = SNU601 cells; 72 hours
In short: as §1

SNU620 = SNU620 cells; 72 hours
In short: as §1

YCC3 = YCC3 cells; 72 hours
In short: as §1

NCC19 = NCC19 cells; 72 hours
In short: as §1

MKN74 = MKN74 cells; 72 hours
In short: as §2

MKN1 = MKN1 cells; 72 hours
In short: as §1

SNU16 = SNU16 cells; 72 hours
In short: as §1

KATO3 = KATO3 cells; 72 hours
In short: as §1

SNU484 = SNU484 cells (SEM subtype); 72 hours
In short: as §1

YCC2 = YCC2 cells; 72 hours
In short: as §1

SNU668 = SNU668 cells (SEM subtype); 72 hours
In short: as §1

NCC59 = NCC59 cells; 72 hours
In short: as §1

SNU1967 = SNU1967 cells; 72 hours
In short: as §1

MKN45 = MKN45 cells (non-SEM subtype); 72 hours
In short: as §2

SNU1750 = SNU1750 cells (SEM subtype); 72 hours
In short: as §1

SNU638 = SNU638 cells; 72 hours
In short: as §1

SNU216 = SNU216 cells (non-SEM subtype); 72 hours
In short: as §2

NCC20 = NCC20 cells; 72 hours
In short: as §1

NCC24 = NCC24 cells; 72 hours
In short: as §1

YCC11 = YCC11 cells (SEM subtype); 72 hours
In short: as §1

Hs746T = Hs746T cells (SEM subtype); 72 hours
In short: as §1

SK4 = SK4 cells (SEM subtype); 72 hours
In short: as §1

NCI_N87 = NCI_N87 cells; 72 hours
In short: as §1

SNU719 = SNU719 cells; 72 hours
In short: as §2

Row | SMILES | Average Area Under the Viability Curve (AUC), AUC norm value (FU97) | Average Area Under the Viability Curve (AUC), AUC norm value (SNU1) | Average Area Under the Viability Curve (AUC), AUC norm value (OCUM1) | Average Area Under the Viability Curve (AUC), AUC norm value (AGS) | Average Area Under the Viability Curve (AUC), AUC norm value (MKN28) | Average Area Under the Viability Curve (AUC), AUC norm value (SNU601) | Average Area Under the Viability Curve (AUC), AUC norm value (SNU620) | Average Area Under the Viability Curve (AUC), AUC norm value (YCC3) | Average Area Under the Viability Curve (AUC), AUC norm value (NCC19) | Average Area Under the Viability Curve (AUC), AUC norm value (MKN74) | Average Area Under the Viability Curve (AUC), AUC norm value (MKN1) | Average Area Under the Viability Curve (AUC), AUC norm value (SNU16) | Average Area Under the Viability Curve (AUC), AUC norm value (KATO3) | Average Area Under the Viability Curve (AUC), AUC norm value (SNU484) | Average Area Under the Viability Curve (AUC), AUC norm value (YCC2) | Average Area Under the Viability Curve (AUC), AUC norm value (SNU668) | Average Area Under the Viability Curve (AUC), AUC norm value (NCC59) | Average Area Under the Viability Curve (AUC), AUC norm value (SNU1967) | Average Area Under the Viability Curve (AUC), AUC norm value (MKN45) | Average Area Under the Viability Curve (AUC), AUC norm value (SNU1750) | other results
1 | CC(C)[C@H](C(=O)Nc1ccc(C(=O)NO)cc1)c1ccccc1 [AR-42 (HDAC-42), AR-42] | −1.358 | −0.3147 | −0.3936 | −1.186 | 0.07777 | 1.874 | −1.197 | 0.6875 | 1.026 | 0.1789 | 0.9532 | −1.427 | 0.7324 | 0.127 | −0.00569 | 0.2515 | 2.102 | −0.9137 | 1.962 | −1.401 | Average Area Under the Viability Curve (AUC), AUC norm value (SNU638): −0.7804; Average Area Under the Viability Curve (AUC), AUC norm value (SNU216): 0; Average Area Under the Viability Curve (AUC), AUC norm value (NCC20): 0.06736; Average Area Under the Viability Curve (AUC), AUC norm value (NCC24): −0.6217; Average Area Under the Viability Curve (AUC), AUC norm value (YCC11): −0.3298; Average Area Under the Viability Curve (AUC), AUC norm value (Hs746T): 0.3259; Average Area Under the Viability Curve (AUC), AUC norm value (SK4): −0.3617; Average Area Under the Viability Curve (AUC), AUC norm value (NCI_N87): −0.1344; Average Area Under the Viability Curve (AUC), AUC norm value (SNU719): 2.169
2 | O=C(/C=C/c1cccc(S(=O)(=O)Nc2ccccc2)c1)NO [Belinostat (PXD101), Belinostat] | −0.9726 | 0.1147 | −0.225 | −0.9372 | −0.3952 | 1.495 | −1.0681 | 1.065 | 1.206 | −0.1835 | 0.9981 | −1.577 | 0.7544 | 0.9966 | 0.1706 | 0.6908 | 2.683 | −0.3122 | 2.493 | −0.902 | Average Area Under the Viability Curve (AUC), AUC norm value (SNU638): −0.5011; Average Area Under the Viability Curve (AUC), AUC norm value (SNU216): −0.2541; Average Area Under the Viability Curve (AUC), AUC norm value (NCC20): 0; Average Area Under the Viability Curve (AUC), AUC norm value (NCC24): −1.095; Average Area Under the Viability Curve (AUC), AUC norm value (YCC11): −0.5556; Average Area Under the Viability Curve (AUC), AUC norm value (Hs746T): 0.5598; Average Area Under the Viability Curve (AUC), AUC norm value (SK4): −0.3048; Average Area Under the Viability Curve (AUC), AUC norm value (NCI_N87): 0.02343; Average Area Under the Viability Curve (AUC), AUC norm value (SNU719): 2.329
